Measured values taken from patent publication US20260055061A1, “HALOPHTHALIMIDE COMPOUNDS AND METHODS OF USE AGAINST TBI, INFLAMMATORY DISORDER, AUTOIMMUNE DISORDER, NEURODEGENERATIVE DISEASE OR VIRAL INFECTION” (The United States of America, as represented by the …, priority 2022, published 2026).
“Also recorded” adds a separate entry of the source.

How the values were obtained:
TNF-α = experiment: LPS-induced TNF-α production in RAW 264.7 cells (ELISA); type: cell-based, mouse; conditions: for TNF-a, % Change versus Control (± s.e.m.): 10 uM; for TNF-α % Δ: percentage of vehicle control value (control = 100%), mean ± S.E.M., n = 3
Method: Enzyme-linked immunosorbent assay for TNF-α protein: Media TNF-α levels were measured by use of the Biolegend ELISA MAX Set Delux ELISA (#430904). The protocol used was that recommended by the manufacturer. In brief, a day prior to performing the assay, a 96 well plate was coated with a capture antibody directed against TNF-α. The following day the assay plate was washed and blocked with the kit blocking agent for 1 h while being mixed on a plate shaker at 200 rpm (all incubations were mixed at 200 rpm unless stated otherwise). A TNF-α protein standard curve was prepared in the assay diluent following the kit instructions and unknown media samples were likewise diluted in the same assay diluent. After blocking, the plate was washed and then both the standards and unknown media samples were added to the plate in duplicate. The standards and unknown samples were incubated for 2 h. After the incubation, the plate was washed and then the biotin labeled detection antibody was added to each well and incubated for a further 1 h. After this incubation, the avidin-HRP conjugate complex was added to each well and incubated for 30 min. The plate was washed and the chromogenic substrate 3,3′,5,5′-tetramethylbenzidine solution was added to each well. At this point the plate was covered and incubated in the dark for 15 min, with no mixing. After 15 min the chromogenic reaction was stopped by the addition of 2 N H2SO4 and the absorbance was read at 450 nm and for background subtractions at 570 nm, on a SPECTRAmax PLUS plate reader. The absorbances were used to generate a TNF-α a protein standard curve and the protein levels in the unknown samples were determined using SoftMax Pro V5, Molecular Devices.
(§1) Cells were propagated as described by ATCC guidelines.

RAW 264.7 cells = experiment: Cell viability of drug treated RAW 264.7 cells (CellTiter 96 AQueous One, MTS); conditions: for Viability, % Change versus Control (± s.e.m.): 10 uM; for Cell Viability % Δ: percentage of vehicle control value, mean ± S.E.M., n = 3
Method: Assessments of drug anti-TNF-α and nitric oxide generation in RAW 264.7 cells: RAW 264.7 cells were purchased from ATCC Manassas, VA, USA). The cells were grown in DMEM media (Invitrogen, DMEM, high glucose, GlutaMAX Supplement, pyruvate, #10569-010) supplemented with 10% FBS (Invitrogen, Fetal Bovine Serum, qualified, heat inactivated, #16140-071) with penicillin and streptomycin (Invitrogen, Penicillin-Streptomycin (10,000 U/mL), #15140-122) and were maintained at 37 C and 5% CO2. The cells were grown to 75%-85% confluence on 10 cm plates (corning-Fal-con, #353003) following the protocol described by ATTC. to assess for drug effects on LPS-induced markers of inflammation, namely TNF-α protein and nitrite ion levels (NO2, a stable end-product of nitric oxide metabolism) cells were seeded into 24 well (VWR, #10062-896) at a density of 200×10^3 cells per well. On each plate there was one blank well where no cells were added yet culture media in the well was treated similarly to wells with cells (n=1). The blank well media was used for background subtraction for various downstream assays. twenty-four hours after seeding the plate the seeding media was replaced with fresh media. Two hours after this the cells were exposed to a range of concentrations of drug test-compound(s) dissolved in 100% tissue culture grade dimethyl sjloxide (DMSO, SIGMA #D2650). Drug stocks were prepared in a 200 times more concentrated stock in DMSO. The final concentration of DMSO added to the cells was 0.5%. The effects of each concentration of drug were assessed in 4 wells per concentration in the 24 well plate (n=3 #-4). On each plate one set of wells were assigned as drug-vehicle control (i.e. DMSO), one test compound was assessed on one 24 well plate. […] One hour after the drugs were added the cells were challenged with lipopolysaccharide (LPS, SIGMA, serotype 055:B5) at a final concentration of 60 ng/ml. Twenty to twenty-four hours after the cells were challenged with LPS the culture media was collected and utilized for the measurement of markers of inflammation.
Cellular viability assessment of drug treated RAW 264.7 cells: RAW 264.7 cell viability was determined by use of the CellTiter 96 AQueous One Solution Cell Proliferation Assay (Promega, Madison, WI). Changes in cellular health status were determined by use of indirect measures related to the formation of a colored tetrazolium dye product that can be measured spectrophotometrically at 490 nm. An increase in absorbance at 490 nm is indicative of an increase in numbers of healthy cells; similarly a reduction in absorbance is indicative of a reduction of healthy cells. After the culture media was harvested for use in TNF-α and NO2— ion assays, the media was replaced with 0.5 mL of fresh media plus 100 μL of the cell viability reaction mixture. After a 20-30 min incubation at 37° C. with 5% CO2 the absorbance at 490 nm was obtained using an infinite M200 PRO plate reader (TECAN, USA).
Statistical analyses for RAW-derived assays: Data are expressed as a percentage change from the DMSO-vehicle control measurements. Measurements are expressed as mean±standard errors, where the n number represents the number of wells in a 24 well plate. Due to the presence of one blank control well on each plate, for some drug concentrations the n number is 3 # and not 4. Statistical comparisons were undertaken by use of a One-Way ANOVA with appropriate Bonferroni corrections for multiple comparisons, as required (GraphPad InStat Version 3.05). P values of <0.05 are considered to be of statistical significance.
RAW 264.7 cell culture: RAW 264.7 mouse cells were purchased from ATCC (Manassas, VA, USA) and grown in DMEM media supplemented with 10% FCS, penicillin 100 U/ml and streptomycin 100 μg/ml (ThermoFisher Scientific, Asheville, NC, USA). The cells were maintained at 37° C. and 5% CO2.

[1] = test system: LPS-induced nitrite in RAW 264.7 cells; experiment: LPS-induced nitrite production in RAW 264.7 cells (Griess reagent / fluorometric kit); type: cell-based, mouse; conditions: for Nitrite, % Change versus Control (± s.e.m.): 10 uM; for nitrite level, % of vehicle control: percentage of vehicle control value (control = 100%), mean ± S.E.M., n = 3; for nitrite inhibitory activity (comparison in words): tetrafluoro vs corresponding difluoro or stereoisomer; for nitrite levels (in words): six-compound pomalidomide grouping, RAW cell assay, FIGS. 12-13
Method: Nitrite ion detection in drug treated […] cell culture media: To measure the levels of nitrite ion NO2—) the Griess Reagent System (Promega, Madison, WI, Cat #G2930) was utilized. The protocol followed was that recommended by the manufacturer. In brief a NO2— ion standard curve was prepared in culture media of the same composition to that used for the cell culture study. The concentration range of the standard curve was from 1.5 µM to 100 µM. Equal volumes (50 μL) of standards and unknown samples were added to clear 96 well plates in duplicate. Then 50 μL of sulfanilamide solution was added to each well and the plate was covered and incubated in the dark for 10 min. After the incubation period 50 μL of N-1-napthylethylenediamine dihydrochloride solution was added to each well and the plate was incubated in dark for a further 10 min. After this incubation, the plate was read at 550 nm on a SPECTRAmax PLUS plate reader and the absorbances were used to generate a NO2— standard curve and the NO2— ion levels of the unknown samples are determined using SoftMax Pro V5, Molecular Devices.
Most neurons are highly vulnerable to RNS and ROS. Nitric oxide (NO) is one of RNSs, which is very short lived and cannot be readily measured. However, nitrite is a stable end product of nitric oxide metabolism. Therefore, nitrite acts as a surrogate measure of NO. The Griess Reagent System (Promega Corporation, Madison, WI) can be applied to measure nitrite levels in culture media following the manufacturer's protocol, and this system was used in the present study as it is a more sensitive assay compared to quantifying actions on TNF-α by ELISA assay. […] This challenge induces high level of TNF-α protein accompanied by a robust generation of nitrite.
as §1

[2] = LPS-activated RAW 264.7 cells (Table 9)
[3] = 1 μM, LPS-challenged RAW 264.7 cells
[4] = 10 μM, LPS-challenged RAW 264.7 cells
[5] = 30 μM, LPS-challenged RAW 264.7 cells

Compound: Nc1c(F)ccc2c1C(=O)N(C1CCC(=O)NC1=O)C2=O (stereo not shown) [drawing 93]
- TNF-a, % Change versus Control (± s.e.m.) (TNF-α; [2]): 93 ± 4.1 (N.S.) %
- Viability, % Change versus Control (± s.e.m.) (RAW 264.7 cells; [2]): 90 ± 2.6 (N.S.) %
- Nitrite, % Change versus Control (± s.e.m.) [1, 2]: 100 ± 5.5 (N.S.) %

Compound: CC1(C)[C@@H]2CC[C@@]1(C)[C@@H](N1C(=O)c3c(F)ccc(F)c3C1=O)C2 [Compound 20, 4,7-Difluoro-2-((1R,2S,4R)-1,7,7-trimethylbicyclo[2.2.1]heptan-2-yl) isoindoline-1,3-dione]
- TNF-α % Δ (TNF-α; [3]): 100 ± 2%
- TNF-α % Δ (TNF-α; [4]): 98 ± 3%
- anti-TNF-α activity (TNF-α; [5]): 76%
- TNF-α % Δ (TNF-α; [5]): 76 ± 4%
- Cell Viability % Δ (RAW 264.7 cells; 1 μM, RAW 264.7 cells): 101 ± 3%
- Cell Viability % Δ (RAW 264.7 cells; 10 μM, RAW 264.7 cells): 98 ± 4%
- cell viability (RAW 264.7 cells; 30 μM, RAW 264.7 cells): 96%
- Cell Viability % Δ (RAW 264.7 cells; 30 μM, RAW 264.7 cells): 96 ± 6%
- cytotoxicity (in words) (RAW 264.7 cells; RAW 264.7 cells, 1 to 30 μM): the smallest
- nitrite level, % of vehicle control [1, 3]: 90 ± 2%
- nitrite level, % of vehicle control [1, 4]: 78 ± 3%
- nitrite level, % of vehicle control [1, 5]: 39 ± 5%
- inhibition at 30 µM ([1]; Mus musculus, RAW264.7, 30 μM, LPS-challenged RAW 264.7 cells, read-out: nitrite inhibitory activity): 39%

Compound: CC(C)Nc1ccc(F)c2c1C(=O)N(C1CCC(=O)NC1=O)C2=O (stereo not shown) [Compound 25, 2-(2,6-dioxopiperidin-3-yl)-4-fluoro-7-(isopropylamino) isoindoline-1,3-dione]
- TNF-a, % Change versus Control (± s.e.m.) (TNF-α; LPS-activated RAW 264.7 cells): 87.1 ± 3.4%
- Viability, % Change versus Control (± s.e.m.) (RAW 264.7 cells; LPS-activated RAW 264.7 cells): 99.9 ± 0.4%
- Nitrite, % Change versus Control (± s.e.m.) ([1]; LPS-activated RAW 264.7 cells): 110.1 ± 4.4%

Compound: CC1(C)[C@H]2CC[C@@H](CN3C(=O)c4c(F)c(F)c(F)c(F)c4C3=O)[C@@H]1C2 [Compound 13, 2-(((1S,2R,5S)-6,6-dimethylbicyclo[3.1.1]heptan-2-yl)methyl)-4,5,6,7-tetrafluoroisoindoline-1,3-dione]
- TNF-α % Δ (TNF-α; [3]): 62 ± 3%
- Cell Viability % Δ (RAW 264.7 cells; 1 μM, RAW 264.7 cells): 78 ± 3%
- nitrite level, % of vehicle control [1, 3]: 31 ± 3%
- nitrite inhibitory activity (comparison in words) ([1]; 1 μM): more potent nitrite inhibitory activity

Compound: Nc1c(F)ccc2c1C(=S)N(C1CCC(=S)NC1=O)C2=O (stereo not shown) [Compound 32, 4-amino-5-fluoro-2-(2-oxo-6-thioxopiperidin-3-yl)-3-thioxoisoindolin-1-one]
- nitrite levels (in words) [1]: modest efficacy

Compound: 2-(2,6-dioxopiperidin-3-yl)-4-fluoro-7-nitroisoindoline-1,3-dione [Compound 23]
- TNF-a, % Change versus Control (± s.e.m.) (TNF-α; LPS-activated RAW 264.7 cells): 86.0 ± 4.4%
- Viability, % Change versus Control (± s.e.m.) (RAW 264.7 cells; LPS-activated RAW 264.7 cells): 104.9 ± 2.1%
- Nitrite, % Change versus Control (± s.e.m.) ([1]; LPS-activated RAW 264.7 cells): 56.8 ± 2.2%

Compound: C[C@@H]1[C@@H](N2C(=O)c3c(F)c(F)c(F)c(F)c3C2=O)C[C@H]2C[C@@H]1C2(C)C [Compound 12, 4,5,6,7-Tetrafluoro-2-((1S,2S,3S,5R)-2,6,6-trimethylbicyclo[3.1.1]heptan-3-yl) isoindoline-1,3-d ione]
- TNF-α % Δ (TNF-α; [3]): 56 ± 5%
- Cell Viability % Δ (RAW 264.7 cells; 1 μM, RAW 264.7 cells): 63 ± 4%
- nitrite level, % of vehicle control [1, 3]: 24 ± 3%
- nitrite inhibitory activity (comparison in words) ([1]; 1 μM): more potent nitrite inhibitory activity

Compound: O=C1NC(=S)CCC1N1C(=O)c2c(F)ccc([N+](=O)[O-])c2C1=O (stereo not shown) [Compound 24, 4-fluoro-7-nitro-2-(2-oxo-6-thioxopiperidin-3-yl) isoindoline-1,3-dione]
- TNF-a, % Change versus Control (± s.e.m.) (TNF-α; LPS-activated RAW 264.7 cells): 51.3 ± 3.8%
- Nitrite, % Change versus Control (± s.e.m.) ([1]; LPS-activated RAW 264.7 cells): 4.7 ± 1.0%

Compound: CC1(C)[C@H]2CC[C@@H](CN3C(=O)c4c(F)ccc(F)c4C3=O)[C@@H]1C2 [Compound 19, 2-(((1S,2R,5S)-6,6-dimethylbicyclo[3.1.1]heptan-2-yl)methyl)-4,7-difluoroisoindoline-1,3-dione]
- TNF-α % Δ (TNF-α; [3]): 102 ± 2%
- TNF-α % Δ (TNF-α; [4]): 82 ± 2%
- Cell Viability % Δ (RAW 264.7 cells; 1 μM, RAW 264.7 cells): 98 ± 2%
- Cell Viability % Δ (RAW 264.7 cells; 10 μM, RAW 264.7 cells): 93 ± 4%
- Cell Viability % Δ (RAW 264.7 cells; 30 μM, RAW 264.7 cells): 67 ± 3%
- nitrite level, % of vehicle control [1, 3]: 79 ± 2%
- nitrite level, % of vehicle control [1, 4]: 63 ± 3%
- nitrite level, % of vehicle control [1, 5]: 22 ± 1%

Compound: Nc1cccc2c1C(=S)N(C1CCC(=S)NC1=O)C2=O (stereo not shown) [drawing 90]
- TNF-a, % Change versus Control (± s.e.m.) (TNF-α; [2]): 113 ± 5.4 (N.S.) %
- Viability, % Change versus Control (± s.e.m.) (RAW 264.7 cells; [2]): 92 ± 1.8 (N.S.) %
- Nitrite, % Change versus Control (± s.e.m.) [1, 2]: 43 ± 1.0 (N.S.) $ %

Compound: Nc1c(F)ccc2c1C(=S)N(C1CCC(=S)NC1=O)C2=O (stereo not shown) [drawing 94]
- TNF-a, % Change versus Control (± s.e.m.) (TNF-α; [2]): 114 ± 3.9 (N.S.) %
- Viability, % Change versus Control (± s.e.m.) (RAW 264.7 cells; [2]): 92 ± 1.6 (N.S.) %
- Nitrite, % Change versus Control (± s.e.m.) [1, 2]: 40 ± 1.2 (N.S.) $ %

Compound: O=C1c2c(F)ccc(F)c2C(=O)N1C1CC2CCC1C2 (stereo not drawn) [Compound 22, 2-Endo-(bicyclo[2.2.1]heptan-2-yl)-4,7-difluoroisoindoline-1,3-dione]
- TNF-α % Δ (TNF-α; [3]): 102 ± 5%
- TNF-α % Δ (TNF-α; [4]): 87 ± 5%
- nitrite level, % of vehicle control [1, 3]: 103 ± 5%
- nitrite level, % of vehicle control [1, 4]: 104 ± 2%
- nitrite level, % of vehicle control [1, 5]: 50 ± 3%

Compound: Nc1ccc(F)c2c1C(=O)N(C1CCC(=O)NC1=O)C2=O (stereo not shown) [Compound 26, 4-amino-2-(2,6-dioxopiperidin-3-yl)-7-fluoroisoindoline-1,3-dione]
- Viability, % Change versus Control (± s.e.m.) (RAW 264.7 cells; LPS-activated RAW 264.7 cells): 100.9 ± 1.1%
- Nitrite, % Change versus Control (± s.e.m.) ([1]; LPS-activated RAW 264.7 cells): 90.3 ± 3.7%

Compound: O=C1c2c(F)c(F)c(F)c(F)c2C(=O)N1C1CC2CCC1C2 (stereo not drawn) [Compound 15, 2-Exo-(bicyclo[2.2.1]heptan-2-yl)-4,5,6,7-tetrafluoroisoindoline-1,3-dione]
- TNF-α level (TNF-α; [3]): 55-74%
- TNF-α % Δ (TNF-α; [3]): 71 ± 2%
- nitrite levels [1, 3]: 25-36%
- nitrite level, % of vehicle control [1, 3]: 25 ± 2%
- nitrite inhibitory activity (comparison in words) ([1]; 1 μM): more potent nitrite inhibitory activity; also recorded: slightly more potent than diastereomer 16

Compound: Nc1c(F)ccc2c1C(=O)N(C1CCC(=O)NC1=O)C2=O (stereo not shown) [Compound 31, 4-amino-2-(2,6-dioxopiperidin-3-yl)-5-fluoroisoindoline-1,3-dione]
- nitrite levels (in words) [1]: surpassed by counterparts 3′ and 26

Compound: Nc1ccc(F)c2c1C(=O)N(C1CCC(=S)NC1=O)C2=O (stereo not shown) [Compound 29, 4-amino-7-fluoro-2-(2-oxo-6-thioxopiperidin-3-yl) isoindoline-1,3-dione]
- Viability, % Change versus Control (± s.e.m.) (RAW 264.7 cells; LPS-activated RAW 264.7 cells): 112.4 ± 2.9%
- Nitrite, % Change versus Control (± s.e.m.) ([1]; LPS-activated RAW 264.7 cells): 59.0 ± 1.6%

Compound: O=C1c2c(F)ccc(F)c2C(=O)N1C1CC2CCC1C2 (stereo not drawn) [Compound 21, 2-Exo-(bicyclo[2.2.1]heptan-2-yl)-4,7-difluoroisoindoline-1,3-dione]
- TNF-α % Δ (TNF-α; [3]): 90 ± 1%
- TNF-α % Δ (TNF-α; [4]): 90 ± 1%
- nitrite level, % of vehicle control [1, 3]: 98 ± 7%
- nitrite level, % of vehicle control [1, 4]: 127 ± 2%
- nitrite level, % of vehicle control [1, 5]: 83 ± 10%
